Patent US12162840B2, “Herbicidal compositions” (SYNGENTA PARTICIPATIONS AG, priority 2018, dated 2024)

Tests used:
Assay type in all cases: in vivo
[1] = test system: warm season plant species; experiment: B2 Post-emergence efficacy Test 2, warm season plant species; details: 15 days after application, 0-100 scale, 0=no damage, 100=total kill; for Herbicidal activity, ABUTH: Abutilon theophrasti; for Herbicidal activity, AMARE: Amaranthus retroflexus; for Herbicidal activity, BIDPI: Bidens pilosa; for Herbicidal activity, BRAPL: Brachiaria plantaginea; for Herbicidal activity, DIGSA: Digitaria sanguinalis; for Herbicidal activity, ECHCG: Echinochloa crus galli; for Herbicidal activity, ELEIN: Eleisine indica; for Herbicidal activity, EPHHL: Euphorbia hetrophylla; for Herbicidal activity, GLXMA: Glycine max; for Herbicidal activity, IPOHE: Ipomoea hederacea; for Herbicidal activity, ORYSA: Orysa sativa; for Herbicidal activity, PANMI: Panicum miliaceum; for Herbicidal activity, SETFA: Setaria faberi; for Herbicidal activity, SIDSP: Sida spinosa; for Herbicidal activity, SORVU: Sorghum bicolour; for Herbicidal activity, XANST: Xanthium strumarium; for Herbicidal activity, ZEAMX: Zea mays
Summary of the method: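 Herbicidal effect rated visually 0 (no damage) to 100 (complete kill) at 15 days post-treatment. Post-emergence spray at 12 days used an IF50 formulation with 0.2% v/v Genapol XO80 adjuvant; glasshouse 24/18 or 20/16 °C, 16 h light, 65% humidity.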

Lolium perenne (LOLPE) = experiment: B1 Post-emergence efficacy Test 1; details: post-emergence application, 1000 g/ha, evaluated after 13 days
Summary of the method: (§1)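 Plants sprayed 8 days after sowing with compound at 1000 g/ha in acetone/water (50:50) with 0.5% Tween 20; glasshouse at 24/16 °C day/night, 14 h light, 65% humidity. Damage scored 13 days later on a five-point scale (5=80-100% to 1=0-19%).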

Setaria faberi (SETFA) = experiment: B1 Post-emergence efficacy Test 1; details: post-emergence application, 1000 g/ha, evaluated after 13 days
Summary of the method: as §1

[2] = test system: Echinochloa crus-galli (ECHCG); experiment: B1 Post-emergence efficacy Test 1; details: post-emergence application, 1000 g/ha, evaluated after 13 days
Summary of the method: as §1

[3] = test system: Ipomoea hederacea (IPOHE); experiment: B1 Post-emergence efficacy Test 1; details: post-emergence application, 1000 g/ha, evaluated after 13 days
Summary of the method: as §1

Solanum nigrum (SOLNI) = experiment: B1 Post-emergence efficacy Test 1; details: post-emergence application, 1000 g/ha, evaluated after 13 days
Summary of the method: as §1

[4] = test system: Amaranthus retoflexus (AMARE); experiment: B1 Post-emergence efficacy Test 1; details: post-emergence application, 1000 g/ha, evaluated after 13 days
Summary of the method: as §1

Cc1nn(C)c(=O)c(-c2c(F)ccc(Cl)c2CCc2ccc(F)cc2)c1O [Compound 1.048]
Herbicidal activity, ABUTH ([1]; 15 g/Ha): 60 | Herbicidal activity, ABUTH ([1]; 30 g/Ha): 80 | Herbicidal activity, ABUTH ([1]; 60 g/Ha): 90 | Herbicidal activity, ABUTH ([1]; 125 g/Ha): 90 | Herbicidal activity, ABUTH ([1]; 250 g/Ha): 90 | Herbicidal activity, ABUTH ([1]; 500 g/Ha): 100 | Herbicidal activity, AMARE ([1]; 15 g/Ha): 60 | Herbicidal activity, AMARE ([1]; 30 g/Ha): 80 | Herbicidal activity, AMARE ([1]; 60 g/Ha): 90 | Herbicidal activity, AMARE ([1]; 125 g/Ha): 90 | Herbicidal activity, AMARE ([1]; 250 g/Ha): 100 | Herbicidal activity, AMARE ([1]; 500 g/Ha): 100 | Herbicidal activity, BIDPI ([1]; 15 g/Ha): 70 | Herbicidal activity, BIDPI ([1]; 30 g/Ha): 70 | Herbicidal activity, BIDPI ([1]; 60 g/Ha): 70 | Herbicidal activity, BIDPI ([1]; 125 g/Ha): 70 | Herbicidal activity, BIDPI ([1]; 250 g/Ha): 100 | Herbicidal activity, BIDPI ([1]; 500 g/Ha): 100 | Herbicidal activity, BRAPL ([1]; 15 g/Ha): 20 | Herbicidal activity, BRAPL ([1]; 30 g/Ha): 60 | Herbicidal activity, BRAPL ([1]; 60 g/Ha): 80 | Herbicidal activity, BRAPL ([1]; 125 g/Ha): 80 | Herbicidal activity, BRAPL ([1]; 250 g/Ha): 90 | Herbicidal activity, BRAPL ([1]; 500 g/Ha): 100 | Herbicidal activity, DIGSA ([1]; 15 g/Ha): 0 | Herbicidal activity, DIGSA ([1]; 30 g/Ha): 10 | Herbicidal activity, DIGSA ([1]; 60 g/Ha): 20 | Herbicidal activity, DIGSA ([1]; 125 g/Ha): 20 | Herbicidal activity, DIGSA ([1]; 250 g/Ha): 50 | Herbicidal activity, DIGSA ([1]; 500 g/Ha): 70 | Herbicidal activity, ECHCG ([1]; 15 g/Ha): 60 | Herbicidal activity, ECHCG ([1]; 30 g/Ha): 80 | Herbicidal activity, ECHCG ([1]; 60 g/Ha): 80 | Herbicidal activity, ECHCG ([1]; 125 g/Ha): 90 | Herbicidal activity, ECHCG ([1]; 250 g/Ha): 90 | Herbicidal activity, ECHCG ([1]; 500 g/Ha): 100 | Herbicidal activity, ELEIN ([1]; 15 g/Ha): 0 | Herbicidal activity, ELEIN ([1]; 30 g/Ha): 50 | Herbicidal activity, ELEIN ([1]; 60 g/Ha): 60 | Herbicidal activity, ELEIN ([1]; 125 g/Ha): 60 | Herbicidal activity, ELEIN ([1]; 250 g/Ha): 80 | Herbicidal activity, ELEIN ([1]; 500 g/Ha): 80 | Herbicidal activity, EPHHL ([1]; 15 g/Ha): 50 | Herbicidal activity, EPHHL ([1]; 30 g/Ha): 70 | Herbicidal activity, EPHHL ([1]; 60 g/Ha): 90 | Herbicidal activity, EPHHL ([1]; 125 g/Ha): 90 | Herbicidal activity, EPHHL ([1]; 250 g/Ha): 100 | Herbicidal activity, EPHHL ([1]; 500 g/Ha): 100 | Herbicidal activity, GLXMA ([1]; 15 g/Ha): 70 | Herbicidal activity, GLXMA ([1]; 30 g/Ha): 80 | Herbicidal activity, GLXMA ([1]; 60 g/Ha): 90 | Herbicidal activity, GLXMA ([1]; 125 g/Ha): 90 | Herbicidal activity, GLXMA ([1]; 250 g/Ha): 90 | Herbicidal activity, GLXMA ([1]; 500 g/Ha): 100 | Herbicidal activity, IPOHE ([1]; 15 g/Ha): 70 | Herbicidal activity, IPOHE ([1]; 30 g/Ha): 80 | Herbicidal activity, IPOHE ([1]; 60 g/Ha): 100 | Herbicidal activity, IPOHE ([1]; 125 g/Ha): 100 | Herbicidal activity, IPOHE ([1]; 250 g/Ha): 100 | Herbicidal activity, IPOHE ([1]; 500 g/Ha): 100 | Herbicidal activity, ORYSA ([1]; 15 g/Ha): 0 | Herbicidal activity, ORYSA ([1]; 30 g/Ha): 0 | Herbicidal activity, ORYSA ([1]; 60 g/Ha): 0 | Herbicidal activity, ORYSA ([1]; 125 g/Ha): 0 | Herbicidal activity, ORYSA ([1]; 250 g/Ha): 10 | Herbicidal activity, ORYSA ([1]; 500 g/Ha): 30 | Herbicidal activity, PANMI ([1]; 15 g/Ha): 0 | Herbicidal activity, PANMI ([1]; 30 g/Ha): 20 | Herbicidal activity, PANMI ([1]; 60 g/Ha): 30 | Herbicidal activity, PANMI ([1]; 125 g/Ha): 80 | Herbicidal activity, PANMI ([1]; 250 g/Ha): 100 | Herbicidal activity, PANMI ([1]; 500 g/Ha): 100 | Herbicidal activity, SETFA ([1]; 15 g/Ha): 0 | Herbicidal activity, SETFA ([1]; 30 g/Ha): 40 | Herbicidal activity, SETFA ([1]; 60 g/Ha): 40 | Herbicidal activity, SETFA ([1]; 125 g/Ha): 70 | Herbicidal activity, SETFA ([1]; 250 g/Ha): 80 | Herbicidal activity, SETFA ([1]; 500 g/Ha): 100 | Herbicidal activity, SIDSP ([1]; 15 g/Ha): 80 | Herbicidal activity, SIDSP ([1]; 30 g/Ha): 80 | Herbicidal activity, SIDSP ([1]; 60 g/Ha): 80 | Herbicidal activity, SIDSP ([1]; 125 g/Ha): 90 | Herbicidal activity, SIDSP ([1]; 250 g/Ha): 90 | Herbicidal activity, SIDSP ([1]; 500 g/Ha): 90 | Herbicidal activity, SORVU ([1]; 15 g/Ha): 0 | Herbicidal activity, SORVU ([1]; 30 g/Ha): 30 | Herbicidal activity, SORVU ([1]; 60 g/Ha): 70 | Herbicidal activity, SORVU ([1]; 125 g/Ha): 70 | Herbicidal activity, SORVU ([1]; 250 g/Ha): 80 | Herbicidal activity, SORVU ([1]; 500 g/Ha): 90 | Herbicidal activity, XANST ([1]; 60 g/Ha): 90 | Herbicidal activity, XANST ([1]; 125 g/Ha): 90 | Herbicidal activity, XANST ([1]; 250 g/Ha): 90 | Herbicidal activity, XANST ([1]; 500 g/Ha): 100 | Herbicidal activity, ZEAMX ([1]; 15 g/Ha): 0 | Herbicidal activity, ZEAMX ([1]; 30 g/Ha): 10 | Herbicidal activity, ZEAMX ([1]; 60 g/Ha): 50 | Herbicidal activity, ZEAMX ([1]; 125 g/Ha): 50 | Herbicidal activity, ZEAMX ([1]; 250 g/Ha): 70 | Herbicidal activity, ZEAMX ([1]; 500 g/Ha): 100 | percentage damage caused to the plant, five point scale, LOLPE (Lolium perenne (LOLPE)): 5 (5=80-100%) | percentage damage caused to the plant, five point scale, SETFA (Setaria faberi (SETFA)): 5 (5=80-100%) | percentage damage caused to the plant, five point scale, ECHCG [2]: 5 (5=80-100%) | percentage damage caused to the plant, five point scale, IPOHE [3]: 5 (5=80-100%) | percentage damage caused to the plant, five point scale, SOLNI (Solanum nigrum (SOLNI)): 5 (5=80-100%) | percentage damage caused to the plant, five point scale, AMARE [4]: 5 (5=80-100%)
